Key:
leukocytes in blood = assay: Number of leukocytes in blood from cows with endotoxin-induced mastitis; assay type: in vivo
Description: (§1) Fifteen cows were allotted to three groups of 5 cows each, according to milk production and parity. Cows were intramammary infused into 2 homo-lateral quarters with 100 μg Escherichia coli endotoxin (purified lipopolysacchide (LPS) obtained from E. coli 0111:B4) in 20 ml saline.
(§2) Cows were treated with the contents of one injector per endotoxin infused quarter when the first signs of clinical mastitis were evident, i.e. approximately 2 hours after endotoxin infusion. One group was treated with 300 mg of cephapirin, one group with 300 mg of cephapirin and 20 mg of prednisolone and one group was the non-treated control. The test preparations contained cephapirin and prednisolone in an oil carrier.
(§3) Blood samples were collected from the jugular vein at 24 hours before endotoxin infusion and 1.5, 8, 48 and 72 hours after endotoxin infusion.

[1] = tested on: experimental Streptococcus uberis mastitis; assay: Rectal temperature in cows with experimental Streptococcus uberis mastitis; assay type: in vivo; settings: cephapirin alone, intramammary, 4 infusions
Description: Eighteen lactating cows were intramammarily inoculated into the two left quarters with Streptococcus uberis (±1000 CFU/quarter). At 2 days after challenge, when all cows had clinical signs of mastitis (i.e. quarter foremilk modification and/or udder swelling), cows were allotted to three groups of six cows each, to produce groups with similar parity and milk production.
One group was treated with cephapirin alone (group 1), one group was treated with cephapirin and 20 mg prednisolone (group 2) and one group was non-treated (group 3). Cows included in group 1 and group 2 were treated in the 2 left inoculated quarters at day 2 after challenge. The first treatment was applied after a morning milking, and the following three infusions were performed immediately after the next 3 consecutive milkings. Cows of group 3 were left untreated. […] The rectal temperature was determined from day 9 before first treatment up to day 19 after first treatment.

blood PMN = assay: Chemotaxis of blood PMN from cows with endotoxin-induced mastitis; assay type: in vivo
Description: as §1, §2, §3

[2] = tested on: pathogen identified on day 0 (clinical mastitis); assay: Field study: bacteriological cure rate in clinical mastitis; assay type: in vivo, cows; settings: higher dosage of prednisolone (20 mg) versus 10 mg, field conditions
Description: Lactating cows with clinical mastitis in a single quarter (571) were treated intramammarily either with a composition A (n=260) comprising 300 mg cefapirin sodium and 20 mg of prednisolone four times with a 12 h interval or with composition B (n=254) comprising 200 mg amoxicilline, 50 mg clavulanic acid and 10 mg of prednisolone three times with a 12 h interval. These administration schedules correspond to the recommended dosage of the products. The efficacy of the treatment was determined by the bacteriological cure rate (elimination of pathogen identified on day 0) at day 14, and day 21 and the clinical cure rate (affected quarter produces normal milk and no signs of clinical mastitis anymore) at days 14 and 21.
Bacteriological cure: A cow was considered as bacteriologically cured when, both on Days 14 and 21, the milk sample from the affected quarter was free from pathogen(s) present at day 0 (at admission prior to treatment). For clinical mastitis, treatment were considered as a failure for which cows were not yet clinically cured on the first post-treatment sampling (Day 14). […]
The parameters for efficacy are the outcome variables “bacteriological cure” (cure/non-cure) and “clinical cure” (cure/non-cure). The results in Table 3 and FIG. 6 are expressed as numbers and percentages of cows cured.

[3] = tested on: non-bacterial E. coli endotoxin induced clinical mastitis; settings: intramammary infusion of 40 mg/unit dose; experimental conditions; cited from earlier work
[4] = tested on: cows with endotoxin-induced mastitis; assay: Udder scores (local inflammation) in cows with E. coli endotoxin-induced mastitis; assay type: in vivo
Description: Twenty-four cows were allotted to four groups of 6 cows each, according to milk production and parity. All cows were intramammary infused into two homo-lateral quarters with 100 μg Escherichia coli endotoxin (purified lipopolysacchide (LPS) obtained from E. coli 0111:B4) in 20 ml saline.
The test preparations contained cephapirin and prednisolone in an oily carrier. Four different dose levels of prednisolone were tested: 0 mg (group 1), 10 mg (group 2), 20 mg (group 3) and 40 mg (group 4) per injector (8 g) together with 200 mg of cephapirin sodium.
Cows were treated with the contents of one injector per endotoxin infused quarter when the first signs of clinical mastitis were evident, i.e. 1.5 hours after endotoxin infusion. The next three treatments were infused immediately after consecutive afternoon or morning milkings (12 hours interval) during 2 days. In total four treatments were administered.
Udder scores: The condition and swelling of quarters were determined by palpation once daily after morning milking from day−7 to day−1 relative to endotoxin infusion and twice daily after milkings from day+1 to day+6 relative to endotoxin infusion. The day of endotoxin infusion, swelling of quarters was assessed by palpation approximately every half hour during ±12.5 hours after infusion. The scoring system provides scores 0 to 4. Higher values refer to increased and more severe signs of local inflammation.

[5] = 1.5 hours relative to endotoxin infusion (before first treatment)
[6] = 8 hours relative to endotoxin infusion, treatments at 2, 8, 24 and 36 hours
[7] = 24 hours relative to endotoxin infusion, treatments at 2, 8, 24 and 36 hours
[8] = 72 hours relative to endotoxin infusion, treatments at 2, 8, 24 and 36 hours
[9] = −24 hours relative to endotoxin infusion (before treatment)

Compound | Number of leukocytes in blood (mean) (leukocytes in blood; [5]) | Number of leukocytes in blood (mean) (leukocytes in blood; [6]) | Number of leukocytes in blood (mean) (leukocytes in blood; [7]) | Number of leukocytes in blood (mean) (leukocytes in blood; [8]) | Number of leukocytes in blood (mean) (leukocytes in blood; [9]) | average rectal temperature after treatment [1] | Chemotactic PMN (mean) (blood PMN; [5]) [mL⁻¹] | Chemotactic PMN (mean) (blood PMN; [6]) [mL⁻¹] | Chemotactic PMN (mean) (blood PMN; [7]) [mL⁻¹] | Chemotactic PMN (mean) (blood PMN; [8]) [mL⁻¹] | Chemotactic PMN (mean) (blood PMN; [9]) [mL⁻¹] | influence on the bacteriological cure rate [2] | effects on local and systemic inflammatory signs [3] | dose effect relation of prednisolone and sum of udder scores ([4]; 0, 10, 20, 40 mg prednisolone per injector with 200 mg cephapirin sodium, higher dosages gave lower sum of udder scores) | sum of udder scores compared to placebo quarters ([4]; 20 mg prednisolone per injector with 200 mg cephapirin sodium, intramammary, 4 treatments, from 8 hours post infusion up to evening milking of day 5) | sum of udder scores compared to placebo quarters (0 mg prednisolone) and quarters treated with 10 mg prednisolone ([4]; 40 mg prednisolone per injector with 200 mg cephapirin sodium, intramammary, 4 treatments, from 8 hours post infusion up to evening milking of day 5)
CC(=O)OCC1=C(C(=O)O)N2C(=O)[C@@H](NC(=O)CSc3ccncc3)[C@H]2SC1 [Cephapirin] | 8157 | 6329 | 12148 | 11317 | 8217 | decreased slowly | 1.404e+06 | 142000 | 650000 | 135000 | 2.115e+06 | – | – | – | – | –
C[C@]12C=CC(=O)C=C1CC[C@@H]1[C@@H]2[C@@H](O)C[C@@]2(C)[C@H]1CC[C@]2(O)C(=O)CO [prednisolone, (11β)-11,17,21-trihydroxypregna-1,4-diene-3,20-dione] | – | – | – | – | – | – | – | – | – | – | – | did not negatively influence | improved effects | clear dose effect relation | lower sum of udder scores | significantly lower
